# Assay results as given in patent publication US20160031937A1, “NEURAL REGENERATION PEPTIDES AND USES THEREFOR” (CURONZ HOLDINGS COMPANY LIMITED, priority 2013, published 2016).
# Square brackets hold non-standard residues; d marks the D form. Ends that are not written are not given here. Aib = CC(C)(N)C(=O)O
# System: NRP 13q13.2 gene expression
# Test: NRP 13q13.2 gene expression by semi-quantitative RT-PCR in NTERA-2 cells
# Type: cell-based, human
# Experimental: mRNA was extracted according to standard procedures (TRIzole® from Invitrogen or RNeasy Mini from Qiagen). The mRNA fraction was subjected to DNase I treatment using DNaseI incubation mixture. For this treatment, 10 μl DNaseI stock plus 70 μl buffer was added to mRNA preparation and incubated for 5 minutes at room temperature. cDNA synthesis was then carried out according to standard procedures (SuperScript® III Reverse Transcriptase from Invitrogen).
# The optimized RT-PCR strategy used an intron-spanning forward primer with high GC-content and TM (78° C.) and a reverse primer with a lower TM (60° C.). These primers are shown in FIG. 10, and also further below. The mRNA was treated with DNase I before starting the synthesis of cDNA, as the intron-spanning primer only bridged an intron of 9 nucleic acids.
# The expected RT-PCR product was 221 by in length. PCR conditions included annealing at 58° C. and 36 total cycles. Samples were incubated at 94° C. for 5 minutes as the start of the GeneAmp® cycler operation. The 36 cycles included the sequence: 94° C. for 30 seconds; 58° C. for 30 seconds; 72° C. for 30 seconds; followed by cooling to 15° C. at the end of the PCR.
# The PCR-reaction included: 10× buffer (2.50 μl), 50 mM MgCl2 (0.75 μl), 10 mM dNTPs (0.50 μl), Primer 1 (0.50 μl), Primer 2 (0.50 μl), Taq Polymerase (0.10 μl), cDNA (1.00 μl ), H2O (19.15 μl), to yield a total volume of 25.00 μl. Taq DNA Polymerase was sourced from Invitrogen (Platinum® Taq Polymerase).
# NTERA-2 (ATCC No. CRL-1973) is a human carcinoma derived pluripotent cell line that has only single copies of chromosome 1, 10, 11 and 13. This was the impetus for using 36 cycles of PCR for detection of NRP expression.
# Undifferentiated NTERA-2 cells were obtained. Frozen stocks were prepared with a maximum of 2 passages. NRP expression could be assessed in cells having up to 4-5 passages. The cell culture medium included ATCC-formulated DMEM plus 10% FCS. The medium was exchanged every 2-3 days. For passaging, cells were dislodges by scraping and then transferred into 75cm^2 flasks. An initial seeding included 5 million cells in 12-15 ml of cell medium per flask.
# Subcultivation was performed for gene expression tests. For subcultivation, cells were dislodged by scraping and then gathered by centrifugation at 1500 rpm for 7 minutes, at 4° C. The media was discarded and the cells were resuspended in 16 ml fresh DMEM/10%FBS. The expected yield was 12-15 million cells in the flask. Thus, the resuspended cells were at a concentration of about 1 million cells per ml.
# For passage 3, the remaining 4 ml of cell suspension plus 8 ml culture medium was transferred into new T75 cultivation flask.
# […] All conditions were applied for 15 minutes, 30 minutes, and 60 minutes.
# mRNA was then collected. Cells were washed once at the end of the treatment with subsequent cell scraping. Cells were passed through 25-gauge needle into a 15 ml falcon tube. Falcon tube cell content was aspirated, washed once with DMEM, followed by trypsinization. […]
# Centrifugation was carried out for 7 minutes at 1500 rpm, at 4° C. The pellets were then ready to be stored either at -80° C. or in liquid nitrogen until RNA extraction.
# For RNA extraction, thawed cell pellets were prepared according to manufacturer's instructions (RNeasy Mini from Qiagen). RNA concentration was determined by NanoDropTM. […] For synthesis of sufficient quantities of cDNA, the RNA concentration in the cell samples was ensured to be between 10-20 ng/μl. […]
# [1] = normoxic NTERA-2 cells, 1 pM NRP2945
substance,measurement,setting,value
"Gly Arg Arg Ala Ala Pro Gly Arg Aib Gly Gly (GRRAAPGR[Aib]GG) [NRP2945, synthetic 11-mer peptidomimetic optimized for stability and pharmacokinetics]",time to stimulated endogenous NRP gene expression after administration,"NTERA-2 cells, 100 pM NRP2945",5 to 10 min
same,NRP 13q13.2 gene expression during oxidative stress,"NTERA-2 cells, 0.5 mM 3-NP with simultaneous 1 pM NRP2945",up-regulated after 15 minutes and stays elevated during the period of analysis
same,time frame of exposure for up-regulation of endogenous NRP gene expression (13q13.2),"human NTERA-2 cells, autocrine, unpublished results",≤ 10 min
same,gene expression of NRP 13q13.2,[1],highly elevated after only 15 minutes
same,time of peak NRP 13q13.2 gene expression after peptide contact,[1],30 min
